In the NIST ThermoML archive (doi:10.1016/j.jct.2018.04.019):
Numbers after ± are expanded uncertainties.

Conditions: Liquid; for speed of sound: Frequency=5 MHz, Pulse-echo method; for mass density: Vibrating tube method

Which results are given for `CCCCCCCCC` [nonane]?
speed of sound (283.13 K, 1090 kPa): 1273.9 ± 1.8 m/s; speed of sound (283.13 K, 30100 kPa): 1432.4 ± 1.8 m/s; speed of sound (283.13 K, 59970 kPa): 1563.7 ± 1.9 m/s; speed of sound (283.13 K, 90370 kPa): 1676.8 ± 2 m/s; speed of sound (283.13 K, 120250 kPa): 1774.7 ± 2.1 m/s; speed of sound (283.13 K, 149990 kPa): 1862.2 ± 2.2 m/s; speed of sound (283.13 K, 180130 kPa): 1943.2 ± 2.3 m/s; speed of sound (283.13 K, 210070 kPa): 2017.3 ± 2.4 m/s; speed of sound (283.13 K, 240000 kPa): 2086.3 ± 2.5 m/s; speed of sound (283.13 K, 270320 kPa): 2151.8 ± 2.5 m/s; speed of sound (283.13 K, 300010 kPa): 2212.5 ± 2.6 m/s; speed of sound (283.13 K, 330300 kPa): 2271 ± 2.7 m/s; speed of sound (283.13 K, 360220 kPa): 2326 ± 2.8 m/s; speed of sound (283.13 K, 389880 kPa): 2378.1 ± 2.9 m/s; mass density (283.15 K, 1010 kPa): 726.22 ± 0.62 kg/m3; mass density (283.15 K, 5020 kPa): 729.22 ± 0.63 kg/m3; mass density (283.15 K, 5040 kPa): 729.17 ± 0.63 kg/m3; mass density (283.15 K, 10020 kPa): 732.75 ± 0.64 kg/m3; mass density (283.15 K, 15020 kPa): 736.14 ± 0.66 kg/m3; mass density (283.15 K, 20040 kPa): 739.41 ± 0.68 kg/m3; mass density (283.15 K, 25020 kPa): 742.54 ± 0.7 kg/m3; mass density (283.15 K, 30040 kPa): 745.52 ± 0.72 kg/m3; mass density (283.15 K, 35050 kPa): 748.45 ± 0.74 kg/m3; mass density (283.15 K, 40010 kPa): 751.23 ± 0.77 kg/m3; mass density (283.15 K, 45050 kPa): 753.99 ± 0.79 kg/m3; mass density (283.15 K, 50010 kPa): 756.62 ± 0.81 kg/m3; mass density (283.15 K, 55020 kPa): 759.19 ± 0.84 kg/m3; mass density (283.15 K, 60030 kPa): 761.66 ± 0.87 kg/m3; mass density (283.15 K, 65010 kPa): 764.08 ± 0.89 kg/m3; mass density (298.15 K, 1020 kPa): 714.83 ± 0.62 kg/m3; speed of sound (298.15 K, 1040 kPa): 1212.6 ± 1.8 m/s; mass density (298.15 K, 5010 kPa): 718.08 ± 0.63 kg/m3; mass density (298.15 K, 5040 kPa): 718.12 ± 0.63 kg/m3; mass density (298.15 K, 10030 kPa): 721.94 ± 0.65 kg/m3; mass density (298.15 K, 15060 kPa): 725.7 ± 0.66 kg/m3; mass density (298.15 K, 20040 kPa): 729.17 ± 0.68 kg/m3; mass density (298.15 K, 25040 kPa): 732.54 ± 0.7 kg/m3; mass density (298.15 K, 30010 kPa): 735.76 ± 0.73 kg/m3; speed of sound (298.15 K, 30040 kPa): 1380.2 ± 1.8 m/s; mass density (298.15 K, 35050 kPa): 738.87 ± 0.75 kg/m3; mass density (298.15 K, 40010 kPa): 741.88 ± 0.78 kg/m3; mass density (298.15 K, 45060 kPa): 744.79 ± 0.8 kg/m3; mass density (298.15 K, 50010 kPa): 747.56 ± 0.83 kg/m3; mass density (298.15 K, 55040 kPa): 750.31 ± 0.85 kg/m3; mass density (298.15 K, 60020 kPa): 752.92 ± 0.88 kg/m3; speed of sound (298.15 K, 60130 kPa): 1518 ± 1.9 m/s; mass density (298.15 K, 65010 kPa): 755.48 ± 0.91 kg/m3; speed of sound (298.15 K, 90110 kPa): 1633.4 ± 1.9 m/s; speed of sound (298.15 K, 120200 kPa): 1734.7 ± 2 m/s; speed of sound (298.15 K, 150120 kPa): 1824.9 ± 2.1 m/s; speed of sound (298.15 K, 180370 kPa): 1907.9 ± 2.2 m/s; speed of sound (298.15 K, 210410 kPa): 1983.7 ± 2.4 m/s; speed of sound (298.15 K, 240020 kPa): 2053.1 ± 2.4 m/s; speed of sound (298.15 K, 270230 kPa): 2119.6 ± 2.5 m/s; speed of sound (298.15 K, 300100 kPa): 2181.4 ± 2.6 m/s; speed of sound (298.15 K, 330260 kPa): 2240.5 ± 2.7 m/s; speed of sound (298.15 K, 360030 kPa): 2296 ± 2.8 m/s; speed of sound (298.15 K, 390030 kPa): 2349.2 ± 2.8 m/s; speed of sound (323.14 K, 1020 kPa): 1112.3 ± 1.8 m/s; speed of sound (323.14 K, 30050 kPa): 1297.8 ± 1.8 m/s; speed of sound (323.14 K, 60210 kPa): 1445.2 ± 1.8 m/s; speed of sound (323.14 K, 90150 kPa): 1566.7 ± 1.9 m/s; speed of sound (323.14 K, 120240 kPa): 1672.3 ± 2 m/s; speed of sound (323.14 K, 150130 kPa): 1765.5 ± 2.1 m/s; speed of sound (323.14 K, 179980 kPa): 1850.1 ± 2.2 m/s; speed of sound (323.14 K, 210410 kPa): 1929.2 ± 2.3 m/s; speed of sound (323.14 K, 239980 kPa): 2000.4 ± 2.4 m/s; speed of sound (323.14 K, 270330 kPa): 2068.7 ± 2.5 m/s; speed of sound (323.14 K, 300070 kPa): 2131.6 ± 2.6 m/s; speed of sound (323.14 K, 330050 kPa): 2191.3 ± 2.6 m/s; speed of sound (323.14 K, 360040 kPa): 2247.9 ± 2.7 m/s; speed of sound (323.14 K, 390060 kPa): 2301.7 ± 2.8 m/s; mass density (323.15 K, 1030 kPa): 695.27 ± 0.62 kg/m3; mass density (323.15 K, 5030 kPa): 699.04 ± 0.63 kg/m3; mass density (323.15 K, 5060 kPa): 699.09 ± 0.63 kg/m3; mass density (323.15 K, 10050 kPa): 703.57 ± 0.65 kg/m3; mass density (323.15 K, 15020 kPa): 707.81 ± 0.67 kg/m3; mass density (323.15 K, 20050 kPa): 711.84 ± 0.69 kg/m3; mass density (323.15 K, 25020 kPa): 715.63 ± 0.72 kg/m3; mass density (323.15 K, 30020 kPa): 719.22 ± 0.74 kg/m3; mass density (323.15 K, 35080 kPa): 722.75 ± 0.77 kg/m3; mass density (323.15 K, 40050 kPa): 726.09 ± 0.79 kg/m3; mass density (323.15 K, 45060 kPa): 729.27 ± 0.82 kg/m3; mass density (323.15 K, 50030 kPa): 732.36 ± 0.85 kg/m3; mass density (323.15 K, 55050 kPa): 735.35 ± 0.88 kg/m3; mass density (323.15 K, 60010 kPa): 738.19 ± 0.91 kg/m3; mass density (323.15 K, 65010 kPa): 741.02 ± 0.94 kg/m3; speed of sound (348.14 K, 1040 kPa): 1017.2 ± 1.8 m/s; speed of sound (348.14 K, 1060 kPa): 1018.1 ± 1.8 m/s; speed of sound (348.14 K, 30150 kPa): 1220.8 ± 1.8 m/s; speed of sound (348.14 K, 59870 kPa): 1375.2 ± 1.8 m/s; speed of sound (348.14 K, 90060 kPa): 1503.8 ± 1.8 m/s; speed of sound (348.14 K, 120210 kPa): 1613.8 ± 1.9 m/s; speed of sound (348.14 K, 150180 kPa): 1710.4 ± 2 m/s; speed of sound (348.14 K, 180310 kPa): 1798.1 ± 2.2 m/s; speed of sound (348.14 K, 210230 kPa): 1877.8 ± 2.3 m/s; speed of sound (348.14 K, 240360 kPa): 1951.8 ± 2.4 m/s; speed of sound (348.14 K, 269990 kPa): 2019.2 ± 2.5 m/s; speed of sound (348.14 K, 300420 kPa): 2084.3 ± 2.5 m/s; speed of sound (348.14 K, 330170 kPa): 2144.5 ± 2.6 m/s; speed of sound (348.14 K, 360170 kPa): 2202.2 ± 2.7 m/s; speed of sound (348.14 K, 390070 kPa): 2256.5 ± 2.8 m/s; mass density (348.15 K, 1010 kPa): 675.18 ± 0.63 kg/m3; mass density (348.15 K, 5030 kPa): 679.76 ± 0.64 kg/m3; mass density (348.15 K, 5040 kPa): 679.76 ± 0.64 kg/m3; mass density (348.15 K, 10030 kPa): 685 ± 0.66 kg/m3; mass density (348.15 K, 15020 kPa): 689.84 ± 0.68 kg/m3; mass density (348.15 K, 20040 kPa): 694.44 ± 0.7 kg/m3; mass density (348.15 K, 25050 kPa): 698.79 ± 0.73 kg/m3; mass density (348.15 K, 30030 kPa): 702.84 ± 0.75 kg/m3; mass density (348.15 K, 35050 kPa): 706.74 ± 0.78 kg/m3; mass density (348.15 K, 40020 kPa): 710.4 ± 0.81 kg/m3; mass density (348.15 K, 45070 kPa): 714.01 ± 0.84 kg/m3; mass density (348.15 K, 50040 kPa): 717.37 ± 0.87 kg/m3; mass density (348.15 K, 55050 kPa): 720.67 ± 0.9 kg/m3; mass density (348.15 K, 60000 kPa): 723.79 ± 0.94 kg/m3; mass density (348.15 K, 65040 kPa): 726.84 ± 0.97 kg/m3; speed of sound (373.14 K, 1020 kPa): 924.94 ± 1.9 m/s; speed of sound (373.14 K, 30120 kPa): 1147.9 ± 1.8 m/s; speed of sound (373.14 K, 60040 kPa): 1312.4 ± 1.7 m/s; speed of sound (373.14 K, 90420 kPa): 1447 ± 1.8 m/s; speed of sound (373.14 K, 120190 kPa): 1559.5 ± 1.9 m/s; speed of sound (373.14 K, 150200 kPa): 1659 ± 2 m/s; speed of sound (373.14 K, 180540 kPa): 1749 ± 2.1 m/s; speed of sound (373.14 K, 210010 kPa): 1829.3 ± 2.2 m/s; speed of sound (373.14 K, 240370 kPa): 1905.5 ± 2.3 m/s; speed of sound (373.14 K, 270130 kPa): 1974.7 ± 2.4 m/s; speed of sound (373.14 K, 300130 kPa): 2040.3 ± 2.5 m/s; speed of sound (373.14 K, 330240 kPa): 2102.3 ± 2.6 m/s
